According to US5532233A, “Hetrazepine compounds which have useful pharmaceutical utility” (priority 1986, dated 1996):
pIC50: −log10 of the molar value. Like-named read-outs stand apart in the source and are kept apart here.

What was measured:
[1] = test system: PAF-induced aggregation of human thrombocytes; test: PAF-induced aggregation of human thrombocytes in vitro (inhibition of blood platelet aggregation); type: cell-based; conditions: read-out: IC50 value PAF
Method: The PAF-antagonistic activity of some compounds of formulae Ia and Ib was tested in vitro on the inhibition of blood platelet aggregation.
1. Tests in vitro: inhibition of blood platelet aggregation
The PAF-induced aggregation of human thrombocytes in vitro was used to determine the PAF antagonistic activity of substances. In order to obtain thrombocyte-rich plasma (TRP) blood is taken from an uncongested vein using a plastic syringe which contains 3.8% sodium citrate solution. The ratio of sodium citrate solution to blood is 1:9. After careful mixing the citrated blood is centrifuged for 20 minutes at 150×g (1200 rpm). The thrombocyte aggregation is measured using the method developed by Born and Cross (G. V. R. Born and M. J. Cross, J. Physiol. 168, 178 (1963)), with PAF being added to the TRP with constant stirring to initiate aggregation.
The test substance is added in a volume of 10 μl 2-3 minutes before aggregation is initiated. The solvent used is either distilled water, ethanol and/or dimethyl sulphoxide. Control mixtures are given corresponding volumes of these solvents. After the initial absorption has been recorded (2-3 minutes) aggregation is induced with PAF (5×10^-8 M).
The peak of the first aggregation wave is used in order to assess the effects of the substance. The PAF-induced maximum absorption rate (=maximum aggregation×100%) is tested at the same time in a parallel mixture (=control mixture in one of the channels of the 2-channel aggregometer) to each test mixture (second channel) and used as a 100% value. The aggregation value achieved under the influence of the test substance is […].
Each test substance is tested at concentrations of from 10^-3 to 10^-8 M with a random sampling scope of n=4 to determine any inhibitory activity on the PAF-induced thrombocyte aggregation. A concentration-activity curve is then drawn up from 3 concentrations and the IC50 is determined (concentration for a 50% inhibition of aggregation). With some compounds, only approximate tests for guidance are carried out.

[2] = biological target: benzodiazepine receptor; test: benzodiazepine receptor bonding test using [^3 H] flunitrazepam as radioligand (FNB); type: binding
[3] = test system: PAF; conditions: PAF-antagonistic activity; Kornecki et al.; read-out: IC50 (concentration for a 50% inhibition of aggregation); cited from earlier work
[4] = test system: PAF-induced aggregation of human thrombocytes; conditions: PAF-antagonistic activity known from European Patent Application No. 176 927; read-out: IC50 (the concentration at which a 50% inhibition of aggregation is measured); cited from earlier work
[5] = inhibition of PAF-induced (5×10^-8 M) human thrombocyte aggregation, racemate tested unless otherwise noted
[6] = [^3 H] flunitrazepam, racemate tested unless otherwise noted, read-out: IC50 value FNB (flunitrazepam bonding test)
[7] = [^3 H] flunitrazepam as radioligand, read-out: value in the benzodiazepine receptor bonding test

| Compound | pIC50 ([1]; Homo sapiens) | pIC50 [2, 6] | further results |
| --- | --- | --- | --- |
| Cc1nnc2n1-c1sc3c(c1C(c1ccccc1Cl)=NC2)CC(C(=O)N(C)CCO)CC3 (stereo not shown) [Example 38] |  |  | pIC50 [1, 5]: 5.57 |
| Cc1nnc2n1-c1sc3c(c1C(c1ccccc1Cl)=NC2)CC(C(=O)N1CCOCC1)CC3 (stereo not shown) [Example 1, 4-(Morpholin-4-yl-carbonyl)-6-(2-chlorophenyl)-11-methyl-2,3,4,5-tetrahydro-8H-[1]benzothieno[3,2-f][1,2,4]triazolo[4,3-a][1,4]diazepine] | 6.30 | < 5.30 |  |
| CC(=O)OCC1Cc2sc3c(c2C1)C(c1ccccc1Cl)=NCc1nnc(C)n1-3 (stereo not shown) [Example 19, 3-Acetoxymethyl-5-(2-chlorophenyl)-10-methyl-3,4-dihydro-2H,7H-cyclopenta[4,5]thieno[3,2-f][1,2,4]triazolo[4,3-a][1,4]diazepine] |  |  | pIC50 [1, 5]: 6.22 |
| Cc1nnc2n1-c1sc3c(c1C(c1ccccc1Cl)=NC2)CC(C1=NC(C)(C)CN1)CC3 (stereo not shown) [Example 83] |  |  | pIC50 [1, 5]: 6.05 |
| Cc1nnc2n1-c1sc3c(c1C(c1ccccc1Cl)=NC2)CC(C(=O)N1CCN(C)CC1)CC3 (stereo not shown) [Example 37] | 5.74 | < 5.30 |  |
| Cc1nnc2n1-c1sc3c(c1C(c1ccccc1Cl)=NC2)CC(C1=NCCO1)CC3 (stereo not shown) [Example 79] | 5.66 | 5.32 |  |
| CC(=S)N1CCc2c(sc3c2C(c2ccccc2Cl)=NCc2nnc(C)n2-3)C1 [Example 25, 3-Thioacetyl-6-(2-chlorophenyl)-11-methyl-2,3,4,5-tetrahydro-8H-pyrido[4',3':4,5]thieno[3,2-f][1,2,4]triazolo[4,3-a][1,4]diazepine] | 6.00 | 5.64 |  |
| Cc1cnc2n1-c1sc3c(c1C(c1ccccc1Cl)=NC2)CC(CN1CCOCC1)C3 (stereo not shown) [Example 113] | > 6.70 | 5.52 |  |
| Cc1cnc2n1-c1sc3c(c1C(c1ccccc1Cl)=NC2)CC(Cn1cncn1)CC3 (stereo not shown) [Example 63] | 6.40 | < 5.30 |  |
| Cc1nnc2n1-c1sc3c(c1C(c1ccccc1Cl)=NC2)CC(CO)CC3 (stereo not shown) [Example 17, 4-(Hydroxymethyl)-6-(2-chlorophenyl)-11-methyl-2,3,4,5-tetrahydro-8H-[1]benzothieno[3,2-f][1,2]triazolo[4,3-a][1,4]diazepine] | 5.74 | 5.97 |  |
| Cc1cnc2n1-c1sc3c(c1C(c1ccccc1Cl)=NC2)CC(CO)CC3 (stereo not shown) [Example 64] |  |  | pIC50 [1, 5]: 6.10 |
| Cc1nnc2n1-c1sc3c(c1C(c1ccccc1Cl)=NC2)CCC(C(=O)N1CCOCC1)C3 (stereo not shown) [Example 2, 3-(Morpholin-4-yl-carbonyl)-6-(2-chlorophenyl)-11-methyl-2,3,4,5-tetrahydro-8H-[1]benzothieno[3,2-f][1,2,4]triazolo[4,3-a][1,4]diazepine] | 5.60 | < 5.30 |  |
| Cc1nnc2n1-c1ccc(Cl)cc1C(c1ccccc1)=NC2 [Alprazolam, reference compound] | 4.85 | 8.26 | pIC50 [3]: 4.85 |
| CC(=O)OCC1CCc2sc3c(c2C1)C(c1ccccc1Cl)=NCc1nnc(C)n1-3 (stereo not shown) [Example 62] | 6.40 | 5.34 |  |
| Cc1cnc2n1-c1sc3c(c1C(c1ccccc1Cl)=NC2)CC(C(=O)N1CCOCC1)CC3 (stereo not shown) [Example 10, 4-(Morpholin-4-yl-carbonyl)-6-(2-chlorophenyl)-11-methyl-2,3,4,5-tetrahydro-8H-[1]benzothieno[3,2-f]imidazo[1,2-a][1,4]diazepine] |  |  | pIC50 [1, 5]: 6.52 |
| Cc1nnc2n1-c1sc3c(c1C(c1ccccc1Cl)=NC2)CCNC3 [Compound (B), 6-(2-chlorophenyl)-11-methyl-2,3,4,5-tetrahydro-8-H-pyrido[4',3':4,5]thieno-[3,2-f][1,2,4]triazolo[4,3-a][1,4]diazepine, reference compound] | > 5.15 | 7.46 | pIC50 [4]: 5.00; pIC50 [2, 7]: 7.46 |
| Cc1nnc2n1-c1sc3c(c1C(c1ccccc1Cl)=NC2)CCCC3 [Compound (A), 6-(2-chlorophenyl)-11-methyl-2,3,4,5-tetrahydro-8H-[1]benzothieno[3,2-f][1,2,4]triazolo[4,3-a][1,4]diazepine, reference compound] | > 5.60 | 7.68 | pIC50 [4]: 5.60; pIC50 [2, 7]: 7.68 |
| Cc1nnc2n1-c1sc3c(c1C(c1ccccc1Cl)=NC2)CC(CN1CCOCC1)C3 (stereo not shown) [Example 66] | > 6.70 | 6.04 |  |
| Cc1nnc2n1-c1sc3c(c1C(c1ccccc1Cl)=NC2)C(C(=O)N(C)C)CC3 (stereo not shown) [Example 46] | 5.32 | 5.84 |  |
| Cc1nnc2n1-c1sc3c(c1C(c1ccccc1Cl)=NC2)CC(CN1CCOCC1)CC3 (stereo not shown) [Example 21, 4-(N-Morpholinomethyl)-6-(2-chlorophenyl)-11-methyl-2,3,4,5-tetrahydro-8H-[1]benzothieno[3,2-f][1,2,4]triazolo[4,3-a][1,4]-diazepine] | 6.52 | < 5.30 |  |
| CCN(CC)C(=O)C1CCc2sc3c(c2C1)C(c1ccccc1Cl)=NCc1ncc(C)n1-3 (stereo not shown) [Example 11] | 6.30 | 5.30 |  |
| Cc1nnc2n1-c1sc3c(c1C(c1ccccc1Cl)=NC2)CC(C(=O)NCC(=O)N1CCOCC1)C3 (stereo not shown) [Example 58] | 6.40 | 6.42 |  |
| CCN(CC)C(=O)C1CCc2c(sc3c2C(c2ccccc2Cl)=NCc2nnc(C)n2-3)C1 (stereo not shown) [Example 35] | 5.48 | < 5.30 |  |
| CC(=O)NCC(=O)N1CCc2c(sc3c2C(c2ccccc2Cl)=NCc2nnc(C)n2-3)C1 [Example 86, 3-Acetylaminomethylcarbonyl-6-(2-chlorophenyl)-11-methyl-2,3,4,5-tetrahydro-8H-pyrido[4',3':4,5]thieno[3,2-f][1,2,4]triazolo[4,3-a][1,4]diazepine] | 6.00 | < 5.30 |  |
| Cc1nnc2n1-c1sc3c(c1C(c1ccccc1Cl)=NC2)CC(C(=O)N1CCOCC1)C3 (stereo not shown) [Example 7, 3-(Morpholin-4-yl-carbonyl)-5-(2-chlorophenyl)-10-methyl-3,4-dihydro-2H,7H-cyclopenta[4,5]thieno[3,2-f][1,2,4]triazolo[4,3-a][1,4]diazepine] | 6.52 | 5.44 |  |
| CCN(CC)C(=O)C1CCc2sc3c(c2C1)C(c1ccccc1Cl)=NCc1nnc(C)n1-3 (stereo not shown) [Example 36] | 6.40 | < 5.30 |  |
| Cc1nnc2n1-c1sc3c(c1C(c1ccccc1Cl)=NC2)CC(C1=NCCN1)CC3 (stereo not shown) [Example 33, 4-[2-Imidazolin-2-yl]-6-(2-chlorophenyl)-2,3,4,5-tetrahydro-8H-[1]benzothieno[3,2-f][1,2,4]triazolo[4,3-a][1,4]diazepine] |  |  | pIC50 [1, 5]: 5.64 |
| Cc1nnc2n1-c1ccc(Cl)cc1C(c1ccccc1Cl)=NC2 [Triazolam, reference compound] | 5.05 | 8.85 | pIC50 [3]: 5.05 |
| CC(=O)OCC1Cc2sc3c(c2C1)C(c1ccccc1Cl)=NCc1nncn1-3 (stereo not shown) [Example 68] |  |  | pIC50 [1, 5]: 6.40 |
| OCC1Cc2sc3c(c2C1)C(c1ccccc1Cl)=NCc1nncn1-3 (stereo not shown) [Example 18, 3-(Hydroxymethyl)-5-(2-chlorophenyl)-3,4-dihydro-2H,7H-cyclopenta[4,5]thieno[3,2-f][1,2,4]triazolo[4,3-a][1,4]diazepine] |  |  | pIC50 [1, 5]: 5.89 |
